Measured values taken from patent publication EP2966448B1, “METHOD FOR THE PREDICTION OR PROGNOSIS OF THE RESPONSE OF A HUMAN SUBJECT SUFFERING FROM CANCER TO TREATMENT WITH AN ANTAGONIST OF THE NK1 RECEPTOR” (priority 2013, dated 2014).
Read-outs that look alike come from different tables or passages of the source.

Columns and labels:
[1] = system: human primary tumor cells; test: Inhibition of primary tumor cell cultures vs constitutively activated form of NK1 receptor (Example 7; tumor type per table line); assay type: cell-based
Procedure: (§1) Cell cultures. To obtain tumor cells from human primary tumors we used the method described in De Bari et al. (De Bari et al. 2001). Briefly, small pieces of the tumors were digested into a hyaluronidase solution (Sigma-Aldrich, USA) at a concentration of 1 mg/ml during 15 minutes at 37°C, and then they were treated with 6 mg/ml of collagenase type IV (Invitrogen) during 2 hours at 37°C. Consecutively, cells were washed, and resuspended in the DMEM culture medium with high concentration of glucose (Dulbecco's Modified Eagle's Medium, Invitrogen) supplemented with 1% of antibiotics-antimycotics (Invitrogen) and with 1% of sodium pyruvate (Invitrogen), and the cells were seeded in culture slides at a concentration of 10.000 cells per square centimeter. When cells reached confluence, the adherent cells were separated using sterile trypsin at 0,5% (Invitrogen) and they were used among passages 3 and 9. For the assays shown next, tumor cells were seeded on slides at a concentration of 25.000 cells per well. A total of 6 wells containing the tumor cells were used as survival control. […] All the cultures were kept during 48 hours and later on recollected for their analysis.
It was determined the increase or not in proliferation with the exposition to substance P (NK1 receptor agonist), so that for the cell cultures which grew independently from the exposition to substance P, it was considered that they have constitutively activated forms of such receptor, because a mitogenic signal independently from the presence of the agonist was transmitted. It was checked that all tumor cells presented integrity in the MAP Kinases and PI3 Kinases pathways, as wel as in the K-ras gene, and the protein derived from it.

[2] = system: Ovarian carcinoma; test: Inhibition of primary tumor cell cultures (48 hours) vs NK1 receptor immunostaining (Example 1); assay type: cell-based; conditions: Homo sapiens, 1 micromolar, read-out: Percentage of inhibition of cell cultures
Procedure: as §1
(§2) Immunohistochemistry techniques. The presence of NK1 receptors was also analyzed using immunohistochemistry techniques. Briefly, a sample of each of the cultures of the cell lines used in the present invention, was centrifuged (5 minutes at 1.500 rpm) and the pellet obtained was dehydrated using increasing concentrations of ethanol and, finally, xylol. Then, said dehydrated samples were embedded in paraffin, creating a block of cells. Such paraffin blocks were cut with a microtome at 5 microns thickness, and were placed on microscope slides adequate to perform immunohistochemistry techniques. Consecutively, they were de-paraffinized by immersing them in xylol, to be finally hydrated using a solution containing decreasing concentrations of ethanol, and finally submerged them into water. […] After this, the samples were left to cool down at room temperature for 10 minutes. The endogenous peroxidase activity was blocked with 3% peroxide of hydrogen for 30 minutes at room temperature. After washing the samples with 0.05 M of Tris buffer, they were incubated with 10% non-immune pork serum at for 30 minutes at room temperature. To analyze the expression of NK1 receptors, the cellular samples were incubated in the presence of anti-NK1 antibodies (S8305, Sigma-Aldrich) diluted 1:1000, overnight at 4°C. Afterwards, the samples were washed in Tris buffer 0.05 M at room temperature. The next step was the addition of Envision System-HRP (Dako) reagents for 30 minutes at room temperature. Then, the samples were washed again in Tris buffer 0.05 M and the immunoreactivity was visualized through light microscopy with a chromogenic solution containing 3,3'-Diaminobenzidine (DAB+; Dako, USA). To differentiate the cell nuclei, they were slightly stained with hematoxylin. As negative control, it was used samples not incubated with the primary antibody anti-NK1, which was replaced by non-immune serum. All the samples were evaluated.
(§3) To value the immunostaining in each of the cases six cuts were performed to be analyzed by the immunohistochemistry technique. In each of the six cuts, it was counted cells in 20 fields (magnification 400x) using an Olympus microscope (model CX31). In each field it was counted the total number of cells and the number of cells presenting immunostaining, calculating afterwards the percentage of cells which presented immunostaining.

[3] = system: Urinary bladder carcinoma; test: as above; assay type: cell-based; conditions: Homo sapiens, 1 micromolar, read-out: Percentage of inhibition of cell cultures
Procedure: as §1, §2, §3

[4] = system: Melanoma; test: as above; assay type: cell-based; conditions: Homo sapiens, 1 micromolar, read-out: Percentage of inhibition of cell cultures
Procedure: as §1, §2, §3

[5] = system: Leukemia T; test: as above; assay type: cell-based; conditions: Homo sapiens, 1 micromolar, read-out: Percentage of inhibition of cell cultures
Procedure: as §1, §2, §3

[6] = system: Renal cell carcinoma (clear cell renal cell carcinoma); test: Inhibition of primary tumor cell cultures vs Kras mutation (Example 2); assay type: cell-based, human; conditions: 100 micromolar; for inhibition at 100 µM: Homo sapiens, read-out: Percentage of inhibition of cell cultures; for Percentage of inhibition of cell cultures: Renal cell carcinoma (clear cell renal cell carcinoma)
Procedure: as §1
(§4) In each case the presence or not of mutations in K-ras gene was determined.
(§5) To determine the existence of mutations in the K-ras gene DNA from cancer tumor cells was extracted from samples obtained from the different cancer tumor cells, using DNA extraction kits from Takara (Madison, WI, US) or Ambion (Huntingdon, Cambridgeshire, United Kingdom), following the manufacturer's instructions, and as it has been previously published (Di Fiore F, et al. 2007). Consecutively it was analyzed by sequencing the exon 2 of the KRAS gene, , by means of PCR amplification from previously extracted cancer tumor DNA, using the following sense primer (SEQ ID NO. 15): 5'-[sequence]-3' and anti-sense primer (SEQ ID NO. 16): 5'-[sequence]-3'. After the purification using the Qiagen extraction kit, the PCR products were sequenced using the Big Dye Terminator Kit V3.1 (Applied Biosystems, Foster City, CA, U.S.) and an ABI Prism 377 or 3100 DNA sequencer (Applied Biosystems). The presence of a heterozygous mutation in the KRAS gene in cancer tumor cells of the cultures was defined as the appearance of a mutant peak of a height of at least a third of the wild type. All the sequence analysis were executed at least twice in two independent PCR.
(§6) The antibody against NK1 receptor (Table 16) was used at 1/50 concentration. The percentages of inhibition are expressed in percentage of variation in relation to control ± standard deviation.

[7] = system: Carcinoma of the uterine cervix (Squamous cell carcinoma); test: as above; assay type: cell-based, human; conditions: 100 micromolar; for inhibition at 100 µM: Homo sapiens, read-out: Percentage of inhibition of cell cultures; for Percentage of inhibition of cell cultures: Carcinoma of the uterine cervix (Squamous cell carcinoma)
Procedure: as §1, §4, §5, §6

[8] = system: Glioma (astrocytoma); test: as above; assay type: cell-based, human; conditions: 100 micromolar; for inhibition at 100 µM: Homo sapiens, read-out: Percentage of inhibition of cell cultures; for Percentage of inhibition of cell cultures: Glioma (astrocytoma)
Procedure: as §1, §4, §5, §6

[9] = NK1 receptor immunostaining Group 1 (less than 20% of the cells)
[10] = NK1 receptor immunostaining Group 2 (20-80% of the cells)
[11] = NK1 receptor immunostaining Group 3 (more than 80% of the cells)
[12] = NK1 receptor immunostaining Intensity grade 1
[13] = NK1 receptor immunostaining Intensity grade 2
[14] = NK1 receptor immunostaining Intensity grade 3
[15] = Cases with Kras non-mutated (wild type)

Structure (SMILES)	inhibition at 1 µM [2, 9]	inhibition at 1 µM [2, 10]	inhibition at 1 µM [2, 11]	inhibition at 1 µM [2, 12]	inhibition at 1 µM [2, 13]	inhibition at 1 µM [2, 14]	inhibition at 1 µM [3, 9]	inhibition at 1 µM [3, 10]	inhibition at 1 µM [3, 11]	inhibition at 1 µM [3, 12]	inhibition at 1 µM [3, 13]	inhibition at 1 µM [3, 14]	inhibition at 1 µM [4, 9]	inhibition at 1 µM [4, 10]	inhibition at 1 µM [4, 11]	inhibition at 1 µM [4, 12]	inhibition at 1 µM [4, 13]	inhibition at 1 µM [4, 14]	inhibition at 1 µM [5, 9]	inhibition at 1 µM [5, 10]	also measured
C[C@@H](O[C@H]1OCCN(Cc2n[nH]c(=O)[nH]2)[C@H]1c1ccc(F)cc1)c1cc(C(F)(F)F)cc(C(F)(F)F)c1 [Aprepitant]	–	–	–	–	–	–	–	–	–	–	–	–	–	–	–	–	–	–	–	–	Percentage of inhibition of cell cultures ([1]; Non Hodgkin Lymphoma B (diffuse B cell lymphoma), Group I (constitutively activated form of NK1 receptor)): 74±6%; Percentage of inhibition of cell cultures ([1]; Non Hodgkin Lymphoma T (diffuse T cell lymphoma), Group I (constitutively activated form of NK1 receptor)): 75±6%; Percentage of inhibition of cell cultures ([1]; Non Hodgkin Lymphoma T (diffuse T cell lymphoma), Group II (normal form of the receptor)): 96±4%; inhibition of tumor cell growth ([1]; group with little proliferating response when exposed to substance P (constitutively activated form of NK1 receptor), compared): higher inhibition
CC(=O)N1CCN([C@H]2CCN(C(=O)N(C)[C@H](C)c3cc(C(F)(F)F)cc(C(F)(F)F)c3)[C@@H](c3ccc(F)cc3C)C2)CC1 [Casopitant]	14 ± 3%	49 ± 3%	94 ± 4%	33 ± 4%	54 ± 4%	91 ± 3%	17 ± 3%	45 ± 3%	94 ± 6%	34 ± 4%	56 ± 4%	93 ± 4%	15 ± 3%	46 ± 4%	93 ± 5%	34 ± 3%	52 ± 4%	93 ± 3%	16 ± 2%	47 ± 5%	inhibition at 1 µM [5, 11]: 95 ± 3%; inhibition at 1 µM [5, 12]: 34 ± 2%; inhibition at 1 µM [5, 13]: 56 ± 4%; inhibition at 1 µM [5, 14]: 93 ± 3%; inhibition at 100 µM ([6]; Cases with Kras mutated): 27 ± 4%; inhibition at 100 µM [6, 15]: 94 ± 3%; inhibition at 100 µM ([7]; Cases with Kras mutated): 27 ± 3%; inhibition at 100 µM [7, 15]: 93 ± 3%; inhibition at 100 µM ([8]; Cases with Kras mutated): 26 ± 4%; inhibition at 100 µM [8, 15]: 94 ± 6%
Cc1cc(F)ccc1[C@H]1CNCCN1C(=O)N(C)[C@H](C)c1cc(C(F)(F)F)cc(C(F)(F)F)c1 [Vestipitant]	14 ± 4%	47 ± 4%	95 ± 5%	15 ± 3%	46 ± 2%	95 ± 4%	15 ± 3%	47 ± 4%	92 ± 5%	17 ± 3%	46 ± 3%	92 ± 3%	16 ± 3%	45 ± 4%	92 ± 6%	15 ± 3%	48 ± 4%	92 ± 4%	17 ± 4%	46 ± 3%	inhibition at 1 µM [5, 11]: 94 ± 4%; inhibition at 1 µM [5, 12]: 15 ± 3%; inhibition at 1 µM [5, 13]: 48 ± 4%; inhibition at 1 µM [5, 14]: 94 ± 5%; Percentage of inhibition of cell cultures ([6]; Cases with Kras mutated): 25±5 percentage; Percentage of inhibition of cell cultures [6, 15]: 95±6 percentage; Percentage of inhibition of cell cultures ([7]; Cases with Kras mutated): 25±5 percentage; Percentage of inhibition of cell cultures [7, 15]: 94±3 percentage; Percentage of inhibition of cell cultures ([8]; Cases with Kras mutated): 25±3 percentage; Percentage of inhibition of cell cultures [8, 15]: 97±5 percentage
